Drawing on PubChem BioAssay (NCI), this text covers TGI and GI50 for 13 molecules.

Some test systems named below: SF-295 CNS; SK-MEL-28 melanoma; TK-10 renal; LOX IMVI melanoma; ACHN renal; 786-0 renal; HOP-62 NSCLC; RPMI-8226 leukemia; SF-268 CNS.
What all share (assay): inhibition of tumour cell growth, NCI panel, 48 h

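A five-concentration, 48-hour dose response in 96-well plates underlies each endpoint, interpolated linearly between surrounding concentrations. Abbreviation: GI50, concentration required for 50% inhibition of growth. TGI is the concentration that stops growth completely.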 Some results are limits rather than exact numbers.

As for `COc1cc(C(C#N)NNC(=O)c2ccccc2O)ccc1O` (stereo not given), the TGI in the experiment on SF-295 CNS, in the experiment with SK-MEL-28 melanoma, in the experiment with TK-10 renal, in the experiment with LOX IMVI melanoma, with ACHN renal and in the experiment with 786-0 renal was above 100 µM throughout. The TGI in the experiment with HOP-62 NSCLC, with RPMI-8226 leukemia and with SF-268 CNS was above 100 µM in each case.
For `CCCN(CCCCC(NC(C)=O)C(=O)NCc1ccccc1)C(=O)NC` (stereo not given), the TGI in the experiment with SF-295 CNS, in the experiment with SK-MEL-28 melanoma, with TK-10 renal, in the experiment on LOX IMVI melanoma, with ACHN renal and with 786-0 renal was above 100 µM each time. In addition, the TGI with HOP-62 NSCLC, with RPMI-8226 leukemia and in the experiment on SF-268 CNS was above 100 µM in each case.
As to `c1cc2c(cnc3cscc32)s1`, the TGI with SF-295 CNS, in the experiment with SK-MEL-28 melanoma, in the experiment with TK-10 renal, in the experiment with LOX IMVI melanoma, in the experiment on ACHN renal and with 786-0 renal was above 100 µM in each case. In addition, the TGI with HOP-62 NSCLC, with RPMI-8226 leukemia and in the experiment with SF-268 CNS was above 100 µM each time.
For the molecule `O=C1c2cccc3cc([N+](=O)[O-])cc(c23)C(=O)N1CCCN1CCN(CCCN2C(=O)c3cccc4cc([N+](=O)[O-])cc(c34)C2=O)CC1`, the TGI with SF-295 CNS is 12.4 µM; in the experiment with TK-10 renal it was 16 µM; with ACHN renal, 4.28 µM; in the experiment on 786-0 renal, 5.55 µM; in the experiment on HOP-62 NSCLC it was 33.8 µM; in the experiment on RPMI-8226 leukemia, above 100 µM.
With `COC(=O)/C(=N/NC(C)(C)C)C(C(=O)C=C(C)C)C(=O)C(=O)Nc1ccc(Cl)cc1C` (stereo not given), the TGI in the experiment on SF-295 CNS, in the experiment on SK-MEL-28 melanoma, in the experiment on TK-10 renal, in the experiment with ACHN renal, in the experiment on 786-0 renal and in the experiment with HOP-62 NSCLC was above 100 µM in each case. For the same molecule, the TGI in the experiment with RPMI-8226 leukemia and with SF-268 CNS was above 100 µM in each case.
Take `O=C(N=Nc1c(O)[nH]c2ccccc12)c1ccccc1O`: the TGI in the experiment on SF-295 CNS, in the experiment with SK-MEL-28 melanoma, with TK-10 renal, in the experiment on LOX IMVI melanoma, in the experiment with ACHN renal and with 786-0 renal was above 100 µM in each case. For the same molecule, the TGI with HOP-62 NSCLC, with RPMI-8226 leukemia and with SF-268 CNS was above 100 µM in each case.
Turning to `c1c[nH]c(Cc2ncc(Cc3cnc[nH]3)[nH]2)n1`, the TGI is above 100 µM with SF-295 CNS; above 100 µM with SK-MEL-28 melanoma; above 100 µM in the experiment with TK-10 renal; 96.2 µM with LOX IMVI melanoma; 51.5 µM in the experiment on ACHN renal; 65.8 µM with 786-0 renal. In addition, the TGI was 98.6 µM with HOP-62 NSCLC, above 100 µM in the experiment on RPMI-8226 leukemia and above 100 µM in the experiment on SF-268 CNS.
As for `CCOC(=O)/C=C(/CN1C(=O)c2ccccc2C1=O)c1ccccc1`, the TGI in the experiment with SF-295 CNS, in the experiment with SK-MEL-28 melanoma, in the experiment with TK-10 renal, with LOX IMVI melanoma, with ACHN renal and in the experiment on 786-0 renal was above 100 µM in each case. The TGI in the experiment on HOP-62 NSCLC, with RPMI-8226 leukemia and in the experiment with SF-268 CNS was above 100 µM each time.
Consider `CCCCCCCCCCCC(=O)C1=C(O)C(O)CCC1=O` (stereo not given), for which the TGI was 30.5 µM in the experiment with SF-295 CNS; 38.6 µM in the experiment on SK-MEL-28 melanoma; 49 µM with TK-10 renal; 28.2 µM in the experiment on LOX IMVI melanoma; 56.9 µM in the experiment with ACHN renal; above 100 µM in the experiment on 786-0 renal. In addition, the values for the TGI in the experiment on HOP-62 NSCLC and in the experiment with SF-268 CNS were 40.4 µM and above 100 µM, respectively.
With `[Cl][Sn]([c]1ccccc1)[c]1ccccc1`, the GI50 in the experiment on SF-295 CNS is 19.2 µM; with SK-MEL-28 melanoma, 1.58 µM; in the experiment on TK-10 renal, 3.17 µM; in the experiment on LOX IMVI melanoma, 3.81 µM; in the experiment on ACHN renal, 11.9 µM; with 786-0 renal, 3.79 µM. Further, the GI50 with HOP-62 NSCLC was 22.9 µM; in the experiment on RPMI-8226 leukemia it was 2.09 µM; in the experiment with SF-268 CNS, 4.1 µM. The TGI came to 35.2 µM in the experiment on SF-295 CNS; 3.62 µM with SK-MEL-28 melanoma; 8.57 µM with TK-10 renal; 13.5 µM in the experiment on LOX IMVI melanoma; 24.2 µM in the experiment on ACHN renal; 12.8 µM with 786-0 renal. Also, the TGI with HOP-62 NSCLC turned out to be 40.7 µM; in the experiment on RPMI-8226 leukemia it was 6.14 µM; in the experiment on SF-268 CNS it was 16.1 µM.
Turning to `c1ccc(COc2ccc3[nH]c4c(ncc5[nH]c6ccccc6c54)c3c2)cc1`, the TGI is 28.2 µM in the experiment on SF-295 CNS; 31.6 µM with SK-MEL-28 melanoma; 40.8 µM in the experiment on TK-10 renal; 32.9 µM with LOX IMVI melanoma; 31.6 µM with ACHN renal; 18.5 µM in the experiment on 786-0 renal. Besides, the TGI in the experiment on HOP-62 NSCLC is 30.5 µM; in the experiment on RPMI-8226 leukemia it was 8.01 µM; in the experiment with SF-268 CNS, 34.6 µM.
For the molecule `CC(C)(C)N=CN1CCC(C(c2ccccc2)c2ccccc2)CC1`, the TGI in the experiment on SF-295 CNS, in the experiment with SK-MEL-28 melanoma, with TK-10 renal, in the experiment on LOX IMVI melanoma, with ACHN renal and with 786-0 renal was above 100 µM throughout. Further, the TGI in the experiment on HOP-62 NSCLC, in the experiment with RPMI-8226 leukemia and in the experiment on SF-268 CNS was above 100 µM in each case.
Regarding `Cn1nnnc1[N-]Cc1ccccc1.[Au+].c1ccc([PH+](c2ccccc2)c2ccccc2)cc1`, the GI50 was 4.45 µM in the experiment with SF-295 CNS; 2.53 µM in the experiment on SK-MEL-28 melanoma; 2.46 µM in the experiment on TK-10 renal; 2.53 µM in the experiment with LOX IMVI melanoma; 4.29 µM in the experiment on ACHN renal; 1.71 µM with 786-0 renal. Also, the figures for the GI50 with HOP-62 NSCLC, in the experiment with RPMI-8226 leukemia and in the experiment with SF-268 CNS were 16 µM, 1.23 µM and 3.45 µM, respectively. In addition, the TGI was 22.8 µM in the experiment with SF-295 CNS; 7.23 µM in the experiment with SK-MEL-28 melanoma; 5.02 µM in the experiment with TK-10 renal; 8.55 µM in the experiment on LOX IMVI melanoma; 10.6 µM with ACHN renal; 3.37 µM in the experiment on 786-0 renal. Further, the TGI in the experiment with HOP-62 NSCLC stood at 30 µM; with RPMI-8226 leukemia, 4.37 µM; in the experiment with SF-268 CNS, 14 µM.
